Laboratory results taken from patent US10344032B2, “Agents for treating neurogenic inflammation and neuropathic hyperalgesia related disorders” (PÉCSI TUDOMÁNYEGYETEM, priority 2014, dated 2019).
Counter-ions that a name gives are not always drawn.

| melting point | Structure (SMILES) |
| --- | --- |
| 236 to 238 °C | Cc1c(C)n(CCCN(C)C)c2ncnc(NCCc3ccccc3)c12 (as salt: salt) [Example 14, [7-(3-Dimethylamino-propyl)-5,6-dimethyl-7H-pyrrolo[2,3-d]pyrimidin-4-yl]-phenethyl-amine] |
| 239 to 240.2 °C | Cc1c(C)n(CCCN(C)C)c2ncnc(NCCc3cccc(F)c3)c12 (as salt: salt) [Example 17, [7-(3-Dimethylamino-propyl)-5,6-dimethyl-7H-pyrrolo[2,3-d]pyrimidin-4-yl]-[2-(3-fluoro-phenyl)-ethyl]-amine] |
| 175.7 to 176.4 °C | Cc1c(C)n(Cc2ccccc2)c2ncnc(NCCc3ccc(NS(C)(=O)=O)cc3)c12 [Example 5, N-{4-[2-(7-Benzyl-5,6-dimethyl-7H-pyrrolo[2,3-d]pyrimidin-4-ylamino)-ethyl]-phenyl}-methanesulfonamide] |
| 208 to 209.2 °C | Cc1c(C)n(Cc2ccccc2)c2ncnc(NCCc3ccc(NC(=O)Nc4ccc(F)cc4F)cc3)c12 [Example 7, 1-{4-[2-(7-Benzyl-5,6-dimethyl-7H-pyrrolo[2,3-d]pyrimidin-4-ylamino)-ethyl]-phenyl}-3-(2,4-difluoro-phenyl)-urea] |
| 140 to 141 °C | COc1ccc(CCNc2ncnc3c2ccn3Cc2ccccc2)cc1 [Example 13, (7-Benzyl-7H-pyrrolo[2,3-d]pyrimidin-4-yl)-[2-(4-methoxy-phenyl)-ethyl]-amine] |
| 232 to 235 °C | Cc1c(C)n(Cc2cccc(Cl)c2)c2ncnc(NCCc3cccc(F)c3)c12 [Example 19, [7-(3-Chloro-benzyl)-5,6-dimethyl-7H-pyrrolo[2,3-d]pyrimidin-4-yl]-[2-(3-fluoro-phenyl)-ethyl]-amine] |
| 190 to 192 °C | Cc1c(C)n(Cc2cccc(Cl)c2)c2ncnc(NCCc3ccccc3Cl)c12 [Example 21, [7-(3-Chloro-benzyl)-5,6-dimethyl-7H-pyrrolo[2,3-d]pyrimidin-4-yl]-[2-(2-chloro-phenyl)-ethyl]-amine] |
| 214 to 216 °C | COc1ccc(CCNc2ncnc3c2c(C)c(C)n3Cc2cccc(Cl)c2)cc1 [Example 23, [7-(3-Chloro-benzyl)-5,6-dimethyl-7H-pyrrolo[2,3-d]pyrimidin-4-yl]-[2-(4-methoxy-phenyl)-ethyl]-amine] |
| 116 to 117.5 °C | Fc1cccc(CCNc2ncnc3c2ccn3Cc2ccccc2)c1 [Example 27, (7-Benzyl-7H-pyrrolo[2,3-d]pyrimidin-4-yl)-[2-(3-fluoro-phenyl)-ethyl]-amine] |
| 195 to 197 °C | OC(CNc1ncnc2c1ccn2Cc1ccccc1)c1ccccc1 (centres unmarked) [Example 29, 2-(7-Benzyl-7H-pyrrolo[2,3-d]pyrimidin-4-ylamino)-1-phenyl-ethanol] |

Second part, the compound before the results:

| Structure (SMILES) | melting point |
| --- | --- |
| Cc1c(C)n(CCCN(C)C)c2ncnc(NCCc3ccc(N)cc3)c12 (as salt: salt) [Example 12, [2-(4-Amino-phenyl)-ethyl]-[7-(3-dimethylamino-propyl)-5,6-dimethyl-7H-pyrrolo[2,3-d]pyrimidin-4-yl]-amine] | 237.2 to 239.9 °C |
| COc1ccc(CCNc2ncnc3c2c(C)c(C)n3CCCN(C)C)cc1OC (as salt: salt) [Example 15, [2-(3,4-Dimethoxy-phenyl)-ethyl]-[7-(3-dimethylamino-propyl)-5,6-dimethyl-7H-pyrrolo[2,3-d]pyrimidin-4-yl]-amine] | 156 to 158.2 °C |
| Cc1c(C)n(CCCN(C)C)c2ncnc(NCCc3ccccc3Cl)c12 (as salt: salt) [Example 16, [2-(2-Chloro-phenyl)-ethyl]-[7-(3-dimethylamino-propyl)-5,6-dimethyl-7H-pyrrolo[2,3-d]pyrimidin-4-yl]-amine] | 245 to 248 °C |
| Cc1c(C)n(CCCN(C)C)c2ncnc(NCC(O)c3ccccc3)c12 (centres unmarked) (as salt: salt) [Example 18, 2-[7-(3-Dimethylamino-propyl)-5,6-dimethyl-7H-pyrrolo[2,3-d]pyrimidin-4-ylamino]-1-phenyl-ethanol] | 209 to 212.9 °C |
| COc1ccc(CCNc2ncnc3c2ccn3Cc2cncc(Br)c2)cc1OC (as salt: salt) [Example 37, [7-(5-Bromo-pyridin-3-ylmethyl)-7H-pyrrolo[2,3-d]pyrimidin-4-yl]-[2-(3,4-dimethoxy-phenyl)-ethyl]-amine] | 119 to 120.4 °C |
| COc1ccc(CCNc2ncnc3c2c(C)c(C)n3CCCN(C)C)cc1 (as salt: salt) [Example 41, [7-(3-Dimethylamino-propyl)-5,6-dimethyl-7H-pyrrolo[2,3-d]pyrimidin-4-yl]-[2-(4-methoxy-phenyl)-ethyl]-amine] | > 250 °C |
| Cc1c(C)n(Cc2ccccc2)c2ncnc(NCCc3ccc(N4C(=O)c5ccccc5C4=O)cc3)c12 [Example 6, 2-{4-[2-(7-Benzyl-5,6-dimethyl-7H-pyrrolo[2,3-d]pyrimidin-4-ylamino)-ethyl]-phenyl}-isoindole-1,3-dione] | 219 to 221 °C |
| Nc1ccc(CCNc2ncnc3c2ccn3Cc2ccccc2)cc1 [Example 8, [2-(4-Amino-phenyl)-ethyl]-(7-benzyl-7H-pyrrolo[2,3-d]pyrimidin-4-yl)-amine] | > 260 °C |
| Cc1c(C)n(Cc2ccco2)c2ncnc(NCCc3ccc(N)cc3)c12 [Example 10, [2-(4-Amino-phenyl)-ethyl]-(7-furan-2-ylmethyl-5,6-dimethyl-7H-pyrrolo[2,3-d]pyrimidin-4-yl)-amine] | 150 to 151.5 °C |
| Nc1ccc(CCNc2ncnc3c2ccn3Cc2cncc(Br)c2)cc1 [Example 11, [2-(4-Amino-phenyl)-ethyl]-[7-(5-bromo-pyridin-3-ylmethyl)-7H-pyrrolo[2,3-d]pyrimidin-4-yl]-amine] | 158.8 to 160.9 °C |
| COc1ccc(CCNc2ncnc3c2c(C)c(C)n3Cc2cccc(Cl)c2)cc1OC [Example 20, [7-(3-Chloro-benzyl)-5,6-dimethyl-7H-pyrrolo[2,3-d]pyrimidin-4-yl]-[2-(3,4-dimethoxy-phenyl)-ethyl]-amine] | 118 to 120 °C |
| COc1ccc(CCN(C)c2ncnc3c2c(C)c(C)n3Cc2cccc(Cl)c2)cc1OC [Example 22, [7-(3-Chloro-benzyl)-5,6-dimethyl-7H-pyrrolo[2,3-d]pyrimidin-4-yl]-[2-(3,4-dimethoxy-phenyl)-ethyl]-methyl-amine] | 178 to 180 °C |
| COc1ccc(CCNc2ncnc3c2ccn3Cc2ccccc2)cc1OC [Example 24, (7-Benzyl-7H-pyrrolo[2,3-d]pyrimidin-4-yl)-[2-(3,4-dimethoxy-phenyl)-ethyl]-amine] | 177.3 to 178.3 °C |
| Clc1ccccc1CCNc1ncnc2c1ccn2Cc1ccccc1 [Example 25, (7-Benzyl-7H-pyrrolo[2,3-d]pyrimidin-4-yl)-[2-(2-chloro-phenyl)-ethyl]-amine] | 180 to 182.3 °C |
| c1ccc(CCNc2ncnc3c2ccn3Cc2ccccc2)cc1 [Example 26, (7-Benzyl-7H-pyrrolo[2,3-d]pyrimidin-4-yl)-phenethyl-amine] | 210 to 211.8 °C |
| Cc1c(C)n(Cc2ccco2)c2ncnc(NCCc3ccccc3Cl)c12 [Example 31, [2-(2-Chloro-phenyl)-ethyl]-(7-furan-2-ylmethyl-5,6-dimethyl-7H-pyrrolo[2,3-d]pyrimidin-4-yl)-amine] | 128.9 to 129.2 °C |
